Assay [1] deals with T1, neurokinin-1 (NK-1) receptor (Homo sapiens, UniProt P25103).
T1 construct: endogenously expresses the neurokinin-1 (NK-1) receptor; endogenous in cells; host or cells: U373 human glioblastoma-astrocytoma cells (membranes)
Description: NK-1 Binding assay ([125I] Substance P competition, U373 cell membranes). The settings on record: Bolton Hunter labeled [125I] Substance P, 30 min at 20° C. The procedure: NK-1 Binding assay. U373 cells, a human glioblastoma-astrocytoma cell line that endogenously expresses the neurokinin-1 (NK-1) receptor, were grown in a monolayer culture at 37° C. in 5% CO2 and fed with Minimum Essential Medium (MEM) supplemented with 10% fetal bovine serum. Membranes were prepared as follows: Cells were washed twice with ice-cold phosphate-buffered saline (pH 7.4) and then incubated for 5–10 minutes with ice-cold 10 mM Tris buffer (pH 7.4) containing 5 mM EDTA. Cells were removed from plates, homogenized, and centrifuged at 32,000×g for 20 minutes. The resulting supernatant was discarded, and the pellet resuspended by homogenization in 50 mM Tris buffer (pH 7.4) containing 1 mM EDTA and centrifuged at 32,000×g for 20 minutes. The resulting supernatant was discarded, and the pellet resuspended by homogenization in NK-1 binding assay buffer (50 mM Tris-HCL (pH 7.4), 3 mM MnCl2, 200 μg/ml BSA, 5 μg/ml chymostatin, 40 μg/ml bacitracin and 4 μg/ml leupeptin).
On the day of an experiment the membrane preparation was thawed, homogenized and diluted with NK-1 binding assay buffer to the appropriate concentration. Competition binding assays were performed in 96 well plate format by incubating membranes (5–10 μg/well) with Bolton Hunter labeled [^125I] Substance P, at a concentration of […], and concentrations of drugs ranging from 10000 to 0.01 nM. Samples were incubated for 30 min at 20° C. then filtered through GF/B glass fiber filters (pretreated with 1% polyethyleneimine and 0.3% Triton X-100) using a Brandel cell harvester. The filters were then washed with 10 ml ice cold 50 mM Tris-HCL (pH 7.4) containing 3 mM MgCl2. Non-specific was defined in the presence of 2 μM L-733,060 (a non-peptide NK-1 antagonist). The amount of radioligand bound in the presence and absence of competitor was analyzed by plotting (−)log drug concentration versus the amount of radioligand specifically bound. The midpoint of the displacement curve (IC50, nM), signifies the potency. Ki values can be calculated using the method of Cheng and Prusoff (Cheng and Prusoff, Biochemical Pharmacology, Vol 22, pp. 3099–3108, Pergamon Press (1973)).

The target of assay [2] is T2, human serotonin transporters (Homo sapiens, UniProt P31645).
T2 construct: expressed in transfected cells
T2 sequence (P31645 whole entry): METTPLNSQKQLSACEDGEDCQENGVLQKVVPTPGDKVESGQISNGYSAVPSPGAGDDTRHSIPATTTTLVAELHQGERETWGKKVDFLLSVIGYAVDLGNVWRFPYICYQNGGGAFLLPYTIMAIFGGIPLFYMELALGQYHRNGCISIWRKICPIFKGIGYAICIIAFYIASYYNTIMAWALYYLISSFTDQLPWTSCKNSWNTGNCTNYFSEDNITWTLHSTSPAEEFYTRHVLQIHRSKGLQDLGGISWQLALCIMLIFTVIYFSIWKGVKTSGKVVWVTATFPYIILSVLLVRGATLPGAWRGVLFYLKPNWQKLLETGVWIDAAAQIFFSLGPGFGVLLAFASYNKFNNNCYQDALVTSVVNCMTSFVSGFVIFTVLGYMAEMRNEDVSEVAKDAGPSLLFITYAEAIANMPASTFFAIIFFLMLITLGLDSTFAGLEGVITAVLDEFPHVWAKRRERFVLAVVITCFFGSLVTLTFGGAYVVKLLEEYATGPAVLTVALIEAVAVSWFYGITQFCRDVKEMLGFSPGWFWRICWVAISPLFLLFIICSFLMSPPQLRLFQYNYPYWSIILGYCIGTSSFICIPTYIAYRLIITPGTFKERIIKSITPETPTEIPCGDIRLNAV
Description: Serotonin transporter binding assay ([3H]-citalopram competition, HEK-hSERT cell membranes). The settings on record: 1 nM [3H]-citalopram, 1 hr at 25° C., read-out: SERT IC50. The procedure: Serotonin transporter binding assay. HEK-293 cells that stably express human serotonin transporters (HEK-hSERT cells) were grown at 37° C. in 5% CO2 as a monolayer in medium consisting of EMEM supplemented with 10% fetal bovine serum and G418 sulfate (500 μg/ml). To prepare membranes for radioligand binding experiments, cells were rinsed twice with phosphate-buffered saline (138 mM NaCl, 4.1 mM KCl, 5.1 mM Na2PO4, 1.5 mM KH2PO4, 11.1 mM glucose, pH 7.4). Cells were transferred from plates to polypropylene tubes (16×100 mm), centrifuged at 1,200×g for 5 min and were frozen at −80° C. until assay. Following centrifugation, pellets were resuspended by homogenization in buffer consisting of 50 mM Tris (pH 7.7 at 25° C.), 120 mM NaCl and 5 mM KCl and then centrifuged at 32,000×g for 10 min. Following centrifugation, supernatants were discarded and pellets were resuspended in buffer consisting of 50 mM Tris (pH 7.4 at 25° C.), 150 mM NaCl and 5 mM KCl. Membrane homogenates (200 μl/plate) were incubated with 1 nM [^3H]-citalopram (specific activity=85 Ci/mmol) and increasing concentrations of test compounds for 1 hr at 25° C. in a total volume of 250 μl. The assay buffer consisted of 50 mM Tris (pH 7.4 at 25° C.), 120 mM NaCl and 5 mM KCl (pH 7.4 with conc. HCl). Plates were incubated for 1 hr at 25° C., then filtered through 0.5% PEI treated Whatman GF/B filters using a Brandel cell harvester. Filters were washed three times with 3 ml of ice-cold tris wash buffer. Non-specific binding was defined with 10 μM fluoxetine. Amount of radioligand bound in the presence and absence of competitor was analyzed by plotting (−)log drug concentration versus the amount of radioligand specifically bound. The midpoint of the displacement curve (IC50, nM), signifies the potency. Ki values can be calculated using the method of Cheng and Prusoff (Cheng and Prusoff, Biochemical Pharmacology, Vol 22, pp. 3099–3108, Pergamon Press (1973)).

T1 sequence (P25103 whole entry): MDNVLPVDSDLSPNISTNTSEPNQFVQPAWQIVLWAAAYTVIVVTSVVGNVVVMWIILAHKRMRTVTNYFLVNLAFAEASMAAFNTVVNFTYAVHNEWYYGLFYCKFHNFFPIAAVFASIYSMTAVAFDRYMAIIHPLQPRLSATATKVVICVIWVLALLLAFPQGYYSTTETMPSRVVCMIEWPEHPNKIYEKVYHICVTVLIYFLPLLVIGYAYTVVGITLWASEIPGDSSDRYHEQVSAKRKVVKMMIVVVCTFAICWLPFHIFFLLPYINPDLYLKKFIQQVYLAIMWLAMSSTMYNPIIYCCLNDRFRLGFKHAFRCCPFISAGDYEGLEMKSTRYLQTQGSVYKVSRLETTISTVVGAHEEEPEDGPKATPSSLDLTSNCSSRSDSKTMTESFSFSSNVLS

`Cc1cccc(C(O)(CCN)COCc2cc(C(F)(F)F)cc(C(F)(F)F)c2)c1C` (centres unmarked) [Example 26, 1-(3,5-bis(trifluoromethyl)benzyloxy)-4-amino-2-(2,3-dimethylphenyl)butan-2-ol]: the IC50 in assay [1] and in assay [2] was 1 to 100 nM in each case.
On to `COc1ccc(OC)c(C(O)(CCN)COCc2cc(C(F)(F)F)cc(C(F)(F)F)c2)c1` (centres unmarked) [Example 27, 1-(3,5-bis(trifluoromethyl)benzyloxy)-4-amino-2-(2,5-dimethoxyphenyl)butan-2-ol], for which the half-maximal inhibitory concentration (IC50) (commonly the concentration at which inhibition is half-maximal) in assay [1] lay within 100 to 300 nM; in assay [2] it was 1 to 100 nM.
The matching figures for `COc1ccc(C(O)(CCN)COCc2cc(C(F)(F)F)cc(C(F)(F)F)c2)c(C)c1` (centres unmarked) [Example 28, 1-(3,5-bis(trifluoromethyl)benzyloxy)-4-amino-2-(4-methoxy-2-methylphenyl)butan-2-ol]: 100 to 300 nM and 1 to 100 nM.
On the same counts, the results for `Cc1ccc(F)cc1C(O)(CCN)COCc1cc(C(F)(F)F)cc(C(F)(F)F)c1` (centres unmarked) [Example 29, 1-(3,5-bis(trifluoromethyl)benzyloxy)-4-amino-2-(5-fluoro-2-methylphenyl)butan-2-ol] are 1 to 100 nM and 1 to 100 nM.
On to `Cc1ccc(C(O)(CCN)COCc2cc(C(F)(F)F)cc(C(F)(F)F)c2)c(C)c1` (centres unmarked) [Example 30, 1-(3,5-bis(trifluoromethyl)benzyloxy)-4-amino-2-(2,4-dimethylphenyl)butan-2-ol], for which the IC50 in assay [1] and in assay [2] was 1 to 100 nM each time.
In the case of `Cc1cc(F)ccc1C(O)(CCN)COCc1cc(C(F)(F)F)cc(C(F)(F)F)c1` (centres unmarked) [Example 31, 1-(3,5-bis(trifluoromethyl)benzyloxy)-4-amino-2-(4-fluoro-2-methylphenyl)butan-2-ol], the IC50 in assay [1] and in assay [2] was 1 to 100 nM in each case.
`Cc1ccc(C(O)(CCN)COCc2cc(C(F)(F)F)cc(C(F)(F)F)c2)cc1C` (centres unmarked) [Example 32, 1-(3,5-bis(trifluoromethyl)benzyloxy)-4-amino-2-(3,4-dimethylphenyl)butan-2-ol]: the IC50 in assay [1] and in assay [2] was 1 to 100 nM throughout.
With `Cc1ccc(C(O)(CCN)COCc2cc(C(F)(F)F)cc(C(F)(F)F)c2)cc1F` (centres unmarked) [Example 33, 1-(3,5-bis(trifluoromethyl)benzyloxy)-4-amino-2-(3-fluoro-4-methylphenyl)butan-2-ol], the IC50 in assay [1] and in assay [2] was 1 to 100 nM each time.
Take `NCCC(O)(COCc1cc(C(F)(F)F)cc(C(F)(F)F)c1)c1cccc2ccccc12` (centres unmarked) [Example 34, 1-(3,5-bis(trifluoromethyl)benzyloxy)-4-amino-2-(naphthalen-1-yl)butan-2-ol]: the concentration for half-maximal inhibition (IC50) in assay [1] and in assay [2] was 1 to 100 nM throughout.
For the compound `CCCc1ccc(C(O)(CCN)COCc2cc(C(F)(F)F)cc(C(F)(F)F)c2)cc1` (centres unmarked) [Example 35, 1-(3,5-bis(trifluoromethyl)benzyloxy)-4-amino-2-(4-propylphenyl)butan-2-ol], the results for the IC50 in assay [1] and in assay [2] were over 300 nM and 100 to 300 nM, respectively.
`Cc1c(F)cccc1C(O)(CCN)COCc1cc(C(F)(F)F)cc(C(F)(F)F)c1` (centres unmarked) [Example 36, 1-(3,5-bis(trifluoromethyl)benzyloxy)-4-amino-2-(3-fluoro-2-methylphenyl)butan-2-ol]: the 50% inhibitory concentration (IC50) in assay [1] and in assay [2] was 1 to 100 nM throughout.
As to `Cc1ccc(C)c(C(O)(CCN)COCc2cc(C(F)(F)F)cc(C(F)(F)F)c2)c1` (centres unmarked) [Example 37, 1-(3,5-bis(trifluoromethyl)benzyloxy)-4-amino-2-(2,5-dimethylphenyl)butan-2-ol], the IC50 in assay [1] and in assay [2] was 1 to 100 nM in each case.
For `CCc1ccc(C(O)(CCN)COCc2cc(C(F)(F)F)cc(C(F)(F)F)c2)cc1` (centres unmarked) [Example 38, 1-(3,5-bis(trifluoromethyl)benzyloxy)-4-amino-2-(4-ethylphenyl)butan-2-ol], the figures for the concentration for half-maximal inhibition (IC50) in assay [1] and in assay [2] were 100 to 300 nM and 1 to 100 nM, respectively.
On the same counts, the results for `COc1ccc(C(O)(CCN)COCc2cc(C(F)(F)F)cc(C(F)(F)F)c2)cc1OC` (centres unmarked) [Example 39, 1-(3,5-bis(trifluoromethyl)benzyloxy)-4-amino-2-(3,4-dimethoxyphenyl)butan-2-ol] are 100 to 300 nM and 1 to 100 nM.
On the same counts, the results for `Cc1cc(Cl)ccc1C(O)(CCN)COCc1cc(C(F)(F)F)cc(C(F)(F)F)c1` (centres unmarked) [Example 40, 1-(3,5-bis(trifluoromethyl)benzyloxy)-4-amino-2-(4-chloro-2-methylphenyl)butan-2-ol] are 1 to 100 nM and 1 to 100 nM.
Regarding `NCCC(O)(COCc1cc(C(F)(F)F)cc(C(F)(F)F)c1)c1ccc(F)cc1` (centres unmarked) [Example 41, 1-(3,5-bis(trifluoromethyl)benzyloxy)-4-amino-2-(4-fluorophenyl)butan-2-ol], the IC50 in assay [1] and in assay [2] was 1 to 100 nM throughout.
Take `NCCC(O)(COCc1cc(C(F)(F)F)cc(C(F)(F)F)c1)c1ccc(Cl)cc1` (centres unmarked) [Example 42, 1-(3,5-bis(trifluoromethyl)benzyloxy)-4-amino-2-(4-chlorophenyl)butan-2-ol]: the half-maximal inhibitory concentration (IC50) in assay [1] and in assay [2] was 1 to 100 nM each time.
As to `Cc1ccccc1C(O)(CCN)COCc1cc(C(F)(F)F)cc(C(F)(F)F)c1` (centres unmarked) [Example 43, 1-(3,5-bis(trifluoromethyl)benzyloxy)-4-amino-2-o-tolylbutan-2-ol], the IC50 in assay [1] and in assay [2] was 1 to 100 nM each time.
As to `NCCC(O)(COCc1cc(C(F)(F)F)cc(C(F)(F)F)c1)c1cccs1` (centres unmarked) [Example 44, 1-(3,5-bis(trifluoromethyl)benzyloxy)-4-amino-2-(thiophen-2-yl)butan-2-ol], the IC50 in assay [1] and in assay [2] was 1 to 100 nM each time.
On to `COc1ccccc1C(O)(CCN)COCc1cc(C(F)(F)F)cc(C(F)(F)F)c1` (centres unmarked) [Example 45, 1-(3,5-bis(trifluoromethyl)benzyloxy)-4-amino-2-(2-methoxyphenyl)butan-2-ol], for which the 50% inhibitory concentration (IC50) in assay [1] and in assay [2] was 1 to 100 nM throughout.
In the case of `COc1ccc(C(O)(CCN)COCc2cc(C(F)(F)F)cc(C(F)(F)F)c2)c(OC)c1` (centres unmarked) [Example 46, 1-(3,5-bis(trifluoromethyl)benzyloxy)-4-amino-2-(2,4-dimethoxyphenyl)butan-2-ol], the 50% inhibitory concentration (IC50) in assay [1] was over 300 nM; in assay [2], 1 to 100 nM.
The matching figures for `NCCC(O)(COCc1ccccc1)c1ccccc1` (centres unmarked) [Example 47, 4-amino-1-(benzyloxy)-2-phenylbutan-2-ol]: over 300 nM and over 300 nM.
The matching figures for `NCCC(O)(COCc1cccc(Br)c1)c1ccccc1` (centres unmarked) [Example 48, 1-(3-bromobenzyloxy)-4-amino-2-phenylbutan-2-ol]: over 300 nM and 1 to 100 nM.
The matching figures for `NCCC(O)(COCc1ccc(OC(F)(F)F)cc1)c1ccccc1` (centres unmarked) [Example 49, 1-(4-(trifluoromethoxy)benzyloxy)-4-amino-2-phenylbutan-2-ol]: over 300 nM and over 300 nM.
On to `NCCC(O)(COCc1ccccc1Cl)c1ccccc1` (centres unmarked) [Example 50, 1-(2-chlorobenzyloxy)-4-amino-2-phenylbutan-2-ol], for which the IC50 in assay [1] is over 300 nM; in assay [2] it was 1 to 100 nM.

These data come from patent US7179926B2, “Aryloxyalkylamine NK-1/SSRI inhibitors” (Bristol-Myers Squibb Company, priority 2004, dated 2007).
